Patent US20250122257A1, “USE OF KININ OR DERIVATIVE THEREOF IN TREATING VCI, PSCI, OR CSVD” (ZonHon Biopharma Institute, Inc., priority 2022, published 2025)
Read-outs that look alike come from different tables or passages of the source. Square brackets hold non-standard residues; d marks the D form. Ends that are not written are not given here. Peptide text beside a SMILES is read from it. 2Thi = N[C@@H](Cc1cccs1)C(=O)O

Assays:
[1] = test system: B2 receptor downstream signals p-CREB and p-ERK1/2; experiment: Phosphorylation of downstream ERK1/2 and CREB by WB in CHO-K1 (B2R+) cells; format: cell-based; conditions: FIG. 3, WB
Procedure: (§1) In vitro B2-receptor affinity activity and activity of activating downstream signaling pathway of PEG conjugates of lysyl bradykinin and its variants were tested, as in Example 3.

[2] = in vivo, cited from earlier work
B2 receptor = molecular target: T1, B2 receptor (Homo sapiens, UniProt P30411); experiment: Affinity activity to B2 receptor, reporter gene assay in B2-NFAT-CHO-K1 cells; format: cell-based; conditions: relative activity calculated from EC50, 5 hours
T1 construct: expressed in transfected cells
T1 sequence (P30411 1-391): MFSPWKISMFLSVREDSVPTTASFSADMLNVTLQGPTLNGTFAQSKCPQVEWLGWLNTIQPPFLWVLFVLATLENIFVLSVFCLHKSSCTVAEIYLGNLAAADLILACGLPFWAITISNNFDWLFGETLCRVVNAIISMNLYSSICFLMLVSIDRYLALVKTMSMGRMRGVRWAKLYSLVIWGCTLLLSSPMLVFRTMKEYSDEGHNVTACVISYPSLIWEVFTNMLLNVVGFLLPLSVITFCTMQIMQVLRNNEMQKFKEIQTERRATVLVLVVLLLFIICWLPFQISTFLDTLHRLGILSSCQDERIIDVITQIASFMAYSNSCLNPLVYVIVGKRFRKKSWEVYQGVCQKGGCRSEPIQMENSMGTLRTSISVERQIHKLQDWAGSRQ
Procedure: The cell line B2-NFAT-CHO-K1 stably transfected with B2 receptor reporter gene was constructed based on CHO-K1 host cells and the cell library was constructed. The B2-NFAT-CHO-K1 cell library was used to evaluate the binding activity of lysyl bradykinin/bradykinin or its variants or PEG modified products to B2 receptor in vitro.
Detection methods: The cells were cultured in 96-well plates at 5×10^4cells/well, 37° C., 5% CO2 for 16-20 hours, and then gradient diluted standard and test solutions were added. After 5 hours, added Bio-Lite luciferase detection reagent and the chemiluminescence intensity was measured. GraphPad was used to make four-parameter equation curve and calculate the relative activity according to the EC50 value.
as §1

Compound | Relative affinity activity to B2 receptor (B2 receptor) | further results
Lys-BKm13-SPA5K: Lys-BKm13 modified with SPA5K PEG (CRRPPG[2Thi]SPFR; also: modified with SPA5K PEG, site not given here) | – | Activity of PEG conjugates in activating phosphorylation of ERK1/2 and CREB (in words) [1]: highest activity among different peptide variants
NCCCC[C@H](N)C(=O)N[C@@H](CCCN=C(N)N)C(=O)N1CCC[C@H]1C(=O)N1CCC[C@H]1C(=O)NCC(=O)N[C@@H](Cc1ccccc1)C(=O)N[C@@H](CO)C(=O)N1CCC[C@H]1C(=O)N[C@@H](Cc1ccccc1)C(=O)N[C@@H](CCCN=C(N)N)C(=O)O [Lys-BK, lysyl bradykinin] | – | Half-life [2]: only seconds
Lys-BKm08: PG{THI}SPFR, SEQ ID NO 9 (PG[2Thi]SPFR) | <10% | –
Lys-BKm10: SPFR, SEQ ID NO 11 | 0% | –
Lys-BKm09: {THI}SPFR, SEQ ID NO 10 ([2Thi]SPFR) | 0% | –
NC(N)=NCCC[C@H](NC(=O)[C@H](Cc1ccccc1)NC(=O)[C@@H]1CCCN1C(=O)[C@H](CO)NC(=O)[C@H](Cc1ccccc1)NC(=O)CNC(=O)[C@@H]1CCCN1C(=O)[C@@H]1CCCN1C(=O)[C@@H](N)CCCN=C(N)N)C(=O)O [BK, bradykinin] (H-RPPGFSPFR-OH) | – | Half-life ([2]; reported): only seconds
